# Laboratory results taken from the supplement of paper PMC10307832.
# What was measured:
# Assay in all cases: relative viability (nuclei count vs DMSO), 5 days (fraction); higher = more cells survive
# [1] = tested on: ChaGo-K-1
# Procedure, shortened: (§1)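 Relative viability was taken as the ratio of nuclei in treated wells to nuclei in vehicle wells. Lung cancer cell lines in 1536-well plates received compounds by pin tool one day after seeding, either one drug alone or a fixed anchor-drug dose plus five library-drug doses (not always all listed) in √10 steps. Nuclei were counted on 4× images after 5 days of treatment, and values are medians of duplicate plates.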
# [2] = tested on: NCI-H1623
# Procedure, shortened: as §1
# [3] = tested on: NCI-H1648
# Procedure, shortened: as §1
# [4] = tested on: A549
# Procedure, shortened: as §1
# [5] = tested on: Calu-6
# Procedure, shortened: as §1
# [6] = tested on: EBC-1
# Procedure, shortened: as §1
# [7] = tested on: IA-LM
# Procedure, shortened: as §1
# [8] = tested on: NCI-H1299
# Procedure, shortened: as §1
# [9] = tested on: NCI-H1703
# Procedure, shortened: as §1
smiles,measurement,setting,value
Clc1ccc(Nc2nnc(Cc3ccncc3)c3ccccc23)cc1 [Vatalanib] + Cc1cc(Nc2cc(N3CCN(C)CC3)nc(Sc3ccc(NC(=O)C4CC4)cc3)n2)n[nH]1 [Tozasertib] (partner 0.1 µM),relative viability,[1]; first compound 0.04 µM,0.241
same,relative viability,[1]; first compound 0.1265 µM,0.231
same,relative viability,[1]; first compound 0.4 µM,0.242
same,relative viability,[1]; first compound 1.265 µM,0.235
same,relative viability,[1]; first compound 4 µM,0.235
same,relative viability,[2]; first compound 0.04 µM,0.415
same,relative viability,[2]; first compound 0.1265 µM,0.435
same,relative viability,[2]; first compound 0.4 µM,0.455
same,relative viability,[2]; first compound 1.265 µM,0.374
same,relative viability,[2]; first compound 4 µM,0.393
same,relative viability,[3]; first compound 0.04 µM,0.581
same,relative viability,[3]; first compound 0.1265 µM,0.442
same,relative viability,[3]; first compound 0.4 µM,0.483
same,relative viability,[3]; first compound 1.265 µM,0.523
same,relative viability,[3]; first compound 4 µM,0.419
CC(C)Oc1cc(Nc2nc(N[C@@H](C)c3ccc(F)cn3)ncc2Cl)n[nH]1 [AZ23] + CCNC(=O)c1noc(-c2cc(C(C)C)c(O)cc2O)c1-c1ccc(CN2CCOCC2)cc1 [Luminespib] (partner 0.01 µM),relative viability,[1]; first compound 0.01 µM,0.637
same,relative viability,[1]; first compound 0.03162 µM,0.687
same,relative viability,[1]; first compound 0.3162 µM,0.7
same,relative viability,[2]; first compound 0.01 µM,0.476
same,relative viability,[2]; first compound 0.03162 µM,0.49
same,relative viability,[2]; first compound 0.3162 µM,0.529
Clc1ccc(Nc2nnc(Cc3ccncc3)c3ccccc23)cc1 [Vatalanib] + Cc1nc(Nc2ncc(C(=O)Nc3c(C)cccc3Cl)s2)cc(N2CCN(CCO)CC2)n1 [Dasatinib] (partner 0.075 µM),relative viability,[1]; first compound 0.04 µM,0.578
same,relative viability,[1]; first compound 0.1265 µM,0.541
same,relative viability,[1]; first compound 0.4 µM,0.582
same,relative viability,[1]; first compound 1.265 µM,0.569
same,relative viability,[1]; first compound 4 µM,0.586
same,relative viability,[2]; first compound 0.04 µM,0.449
same,relative viability,[2]; first compound 0.1265 µM,0.619
same,relative viability,[2]; first compound 0.4 µM,0.545
same,relative viability,[2]; first compound 1.265 µM,0.533
same,relative viability,[2]; first compound 4 µM,0.435
CC(C)Oc1cc(Nc2nc(N[C@@H](C)c3ccc(F)cn3)ncc2Cl)n[nH]1 [AZ23] + Cc1nc(Nc2ncc(C(=O)Nc3c(C)cccc3Cl)s2)cc(N2CCN(CCO)CC2)n1 [Dasatinib] (partner 0.075 µM),relative viability,[1]; first compound 0.01 µM,0.687
same,relative viability,[1]; first compound 0.03162 µM,0.627
same,relative viability,[1]; first compound 0.3162 µM,0.566
same,relative viability,[2]; first compound 0.01 µM,0.503
same,relative viability,[2]; first compound 0.03162 µM,0.578
same,relative viability,[2]; first compound 0.3162 µM,0.57
C[C@@H]1CN(CC(=O)Nc2ccc3c(c2)Cc2cccc(-c4cc(=O)cc(N5CCOCC5)o4)c2S3)C[C@H](C)O1 + Cc1cc(Nc2cc(N3CCN(C)CC3)nc(Sc3ccc(NC(=O)C4CC4)cc3)n2)n[nH]1 [Tozasertib] (partner 0.1 µM),relative viability,[1]; first compound 0.04 µM,0.264
same,relative viability,[1]; first compound 0.1265 µM,0.209
same,relative viability,[1]; first compound 0.4 µM,0.226
same,relative viability,[1]; first compound 4 µM,0.173
same,relative viability,[2]; first compound 0.04 µM,0.461
same,relative viability,[2]; first compound 0.1265 µM,0.409
same,relative viability,[2]; first compound 0.4 µM,0.406
same,relative viability,[2]; first compound 4 µM,0.417
same,relative viability,[3]; first compound 0.04 µM,0.3
same,relative viability,[3]; first compound 0.1265 µM,0.421
same,relative viability,[3]; first compound 0.4 µM,0.542
same,relative viability,[3]; first compound 4 µM,0.395
COc1cc(N2CCC(C(N)=O)CC2)ccc1Nc1nc(N)c(Cl)c(Nc2ccccc2S(=O)(=O)C(C)C)n1 [HG-5-88-01] + Cc1nc(Nc2ncc(C(=O)Nc3c(C)cccc3Cl)s2)cc(N2CCN(CCO)CC2)n1 [Dasatinib] (partner 0.075 µM),relative viability,[1]; first compound 0.04 µM,0.776
same,relative viability,[1]; first compound 0.1265 µM,0.63
same,relative viability,[1]; first compound 0.4 µM,0.509
same,relative viability,[1]; first compound 1.265 µM,0.57
same,relative viability,[1]; first compound 4 µM,0.401
same,relative viability,[2]; first compound 0.04 µM,0.533
same,relative viability,[2]; first compound 0.1265 µM,0.532
same,relative viability,[2]; first compound 0.4 µM,0.498
same,relative viability,[2]; first compound 4 µM,0.486
C[C@@H]1CN(CC(=O)Nc2ccc3c(c2)Cc2cccc(-c4cc(=O)cc(N5CCOCC5)o4)c2S3)C[C@H](C)O1 + O=C(c1cc(Cc2n[nH]c(=O)c3ccccc23)ccc1F)N1CCN(C(=O)C2CC2)CC1 [Olaparib] (partner 8 µM),relative viability,[4]; first compound 0.04 µM,0.239
same,relative viability,[4]; first compound 0.1265 µM,0.334
same,relative viability,[4]; first compound 0.4 µM,0.332
same,relative viability,[4]; first compound 4 µM,0.0917
same,relative viability,[5]; first compound 0.04 µM,0.646
same,relative viability,[5]; first compound 0.1265 µM,0.573
same,relative viability,[5]; first compound 0.4 µM,0.672
same,relative viability,[5]; first compound 4 µM,0.299
same,relative viability,[1]; first compound 0.04 µM,0.461
same,relative viability,[1]; first compound 0.1265 µM,0.428
same,relative viability,[1]; first compound 0.4 µM,0.404
same,relative viability,[1]; first compound 4 µM,0.389
same,relative viability,[6]; first compound 0.04 µM,0.736
same,relative viability,[6]; first compound 0.1265 µM,0.723
same,relative viability,[6]; first compound 0.4 µM,0.494
same,relative viability,[6]; first compound 4 µM,0.147
same,relative viability,[7]; first compound 0.04 µM,0.844
same,relative viability,[7]; first compound 0.1265 µM,0.976
same,relative viability,[7]; first compound 0.4 µM,0.792
same,relative viability,[7]; first compound 4 µM,0.207
same,relative viability,[8]; first compound 0.04 µM,1.08
same,relative viability,[8]; first compound 0.1265 µM,1
same,relative viability,[8]; first compound 0.4 µM,1.05
same,relative viability,[8]; first compound 4 µM,0.488
same,relative viability,[3]; first compound 0.04 µM,0.56
same,relative viability,[3]; first compound 0.1265 µM,1.08
same,relative viability,[3]; first compound 0.4 µM,0.879
same,relative viability,[3]; first compound 4 µM,0.56
same,relative viability,[9]; first compound 0.04 µM,0.489
same,relative viability,[9]; first compound 0.1265 µM,0.407
same,relative viability,[9]; first compound 0.4 µM,0.295
same,relative viability,[9]; first compound 4 µM,0.208
Clc1ccc(Nc2nnc(Cc3ccncc3)c3ccccc23)cc1 [Vatalanib] + N=C(N)NC(=N)NCCc1ccccc1 [Phenformin] (partner 250 µM),relative viability,[4]; first compound 0.04 µM,0.206
same,relative viability,[4]; first compound 0.1265 µM,0.131
same,relative viability,[4]; first compound 0.4 µM,0.104
same,relative viability,[4]; first compound 1.265 µM,0.143
same,relative viability,[4]; first compound 4 µM,0.154
same,relative viability,[1]; first compound 0.04 µM,0.453
same,relative viability,[1]; first compound 0.1265 µM,0.407
same,relative viability,[1]; first compound 0.4 µM,0.522
same,relative viability,[1]; first compound 1.265 µM,0.432
same,relative viability,[1]; first compound 4 µM,0.431
same,relative viability,[2]; first compound 0.04 µM,0.584
same,relative viability,[2]; first compound 0.1265 µM,0.577
same,relative viability,[2]; first compound 0.4 µM,0.514
same,relative viability,[2]; first compound 1.265 µM,0.581
same,relative viability,[2]; first compound 4 µM,0.524
C[C@@H]1CN(CC(=O)Nc2ccc3c(c2)Cc2cccc(-c4cc(=O)cc(N5CCOCC5)o4)c2S3)C[C@H](C)O1 + CCNC(=O)c1noc(-c2cc(C(C)C)c(O)cc2O)c1-c1ccc(CN2CCOCC2)cc1 [Luminespib] (partner 0.01 µM),relative viability,[1]; first compound 0.04 µM,0.598
same,relative viability,[1]; first compound 0.1265 µM,0.596
same,relative viability,[1]; first compound 0.4 µM,0.512
same,relative viability,[1]; first compound 4 µM,0.394
same,relative viability,[2]; first compound 0.04 µM,0.439
same,relative viability,[2]; first compound 0.1265 µM,0.473
same,relative viability,[2]; first compound 0.4 µM,0.442
same,relative viability,[2]; first compound 4 µM,0.561
CC(C)Oc1cc(Nc2nc(N[C@@H](C)c3ccc(F)cn3)ncc2Cl)n[nH]1 [AZ23] + Cc1cc(Nc2cc(N3CCN(C)CC3)nc(Sc3ccc(NC(=O)C4CC4)cc3)n2)n[nH]1 [Tozasertib] (partner 0.1 µM),relative viability,[1]; first compound 0.01 µM,0.234
same,relative viability,[1]; first compound 0.03162 µM,0.234
same,relative viability,[1]; first compound 0.3162 µM,0.235
same,relative viability,[2]; first compound 0.01 µM,0.402
same,relative viability,[2]; first compound 0.03162 µM,0.427
same,relative viability,[2]; first compound 0.3162 µM,0.504
same,relative viability,[3]; first compound 0.03162 µM,0.542
same,relative viability,[3]; first compound 0.3162 µM,0.502
COc1cc(N2CCC(C(N)=O)CC2)ccc1Nc1nc(N)c(Cl)c(Nc2ccccc2S(=O)(=O)C(C)C)n1 [HG-5-88-01] + COc1cccc2cc(-c3nc([C@H]4CC[C@H](C(=O)O)CC4)n4ncnc(N)c34)[nH]c12 [OSI-027] (partner 0.5 µM),relative viability,[1]; first compound 0.04 µM,0.627
same,relative viability,[1]; first compound 0.1265 µM,0.649
same,relative viability,[1]; first compound 0.4 µM,0.645
same,relative viability,[1]; first compound 1.265 µM,0.605
same,relative viability,[1]; first compound 4 µM,0.47
same,relative viability,[2]; first compound 0.04 µM,0.451
same,relative viability,[2]; first compound 0.1265 µM,0.378
same,relative viability,[2]; first compound 0.4 µM,0.408
same,relative viability,[2]; first compound 4 µM,0.296
same,relative viability,[3]; first compound 0.04 µM,0.257
same,relative viability,[3]; first compound 0.1265 µM,0.258
same,relative viability,[3]; first compound 0.4 µM,0.259
same,relative viability,[3]; first compound 1.265 µM,0.28
same,relative viability,[3]; first compound 4 µM,0.29
